Measurements published in patent US7129256B2, “Antiparkinsonism drugs” (Shionogi & Co., Ltd., priority 2000, dated 2006).
Marks after values point to notes of the source that are not given here.

Columns and labels:
[1] = tested on: mice pre-treated with reserpine; experiment: reserpine-induced catalepsy test (bar test, catalepsy score); assay type: in vivo, ddy mice (male); settings: reserpine 5 mg/kg i.p.
Experimental: The effects of compound (IX) in single administration and in combination with L-DOPA on cataleptic responses were examined in mice pre-treated with a monoamine-depleting drug, reserpine.
Reserpine (5 mg/kg, i.p., Apoplon Inj, Daiichi Pharmaceutical) was administrated to ddy mice (male). On the next day, compound (IX) (0.3, 1, 3 mg/kg, p.o.) with or without L-DOPA (25, 100 mg/kg, i.p., dissolved in 0.1N HCl and diluted with distilled water for injection (Otsuka Pharmaceutical)) was administrated to the mice and catalepsy test was performed after 1 hour. When L-DOPA was administrated, mice were pre-treated with carbidopa (25 mg/kg, i.p., 0.5% lactic acid) before 30 min.
The forelimbs or hindlimbs of each mouse were placed on a 4.5 cm high horizontal bar and the time was measured (cut off time 30 sec) until both legs reach the floor. The cataleptic responses were scored as follows (less than 5 sec.: 0 point, 5 sec. to less than 10 sec.: 1 point, 10 sec to less than 15 sec.: 2 points, 15 sec. to than 20 sec.: 3 points, 20 sec. to less than 25 sec.: 4 points, 25 sec. to less than 30 sec.: 5 points, 30 sec. or more: 6 points).
For forelimbs, the scores for 3 repetitive tests were summated. […] The catalepsy scores were calculated as the total scores for forelimbs and hindlimbs.

MPTP-treated mice = experiment: spontaneous locomotor activity of MPTP-treated mice; assay type: in vivo, C57BL/6 mice (male); settings: MPTP 40 mg/kg × 2
Experimental: Mice injected with a dopaminergic toxin, MPTP were used as a model for Parkinson's disease and the effects of single administration of compound (IX) on the reduction of the spontaneous locomotor activity caused by MPTP-treatment were examined.
MPTP (40 mg/kg, i.p., saline) was injected twice at 24-hr intervals to C57BL/6 mice (male), and the day after the last administration, the mice were placed in locomotor activity measuring apparatus. After 30 min, compound (IX) alone (0.3, 1, 3 mg/kg, p.o.) was administered.

normal mice = experiment: spontaneous locomotor activity after oral administration to normal mice (SCANET); assay type: in vivo, C57BL/6 mice (male); set-up: spontaneous locomotor activity / spontaneous locomotor activity, Total: unit not given here; settings: for spontaneous locomotor activity, Total: total for 5 hours after administration
Experimental: The enhancing effects of compound (IX) on the spontaneous locomotor activity were examined in normal mice.
Compound (IX) was orally administrated to C57BL/6 mice (male) and the spontaneous locomotor activity was measured with a locomotor activity measuring apparatus (SCANET, TOYO sangyo). Mice were familiarized to the cage of the apparatus for at least 60 min. Compound (IX) (1,3,10 mg/kg) or vehicle (vehicle, distilled water Otsuka) was administrated orally. The spontaneous locomotor activity was measured for 5 hours after the mice were returned to the cage.

SMILES: N[C@@H](Cc1ccc(O)c(O)c1)C(=O)O [L-DOPA, reference compound]
- catalepsy score, mean ([1]; L-DOPA 100 mg/kg i.p. + solvent p.o., 1 hour after administration): 23.0

SMILES: C[C@@H]1OC(=O)N[C@@H]1C(=O)NC(Cc1cscn1)C(=O)N1CCC[C@H]1C (stereo in doubt) [Compound (IX)]
- spontaneous locomotor activity, Total (MPTP-treated mice; compound (IX) alone 0.3 mg/kg p.o.): 2731 ± 875
- spontaneous locomotor activity, Total (MPTP-treated mice; compound (IX) alone 1 mg/kg p.o.): 4370 ± 1507
- spontaneous locomotor activity (normal mice; 1 mg/kg p.o., Time 0–30): 3737
- spontaneous locomotor activity (normal mice; 1 mg/kg p.o., Time 30–0 (before administration)): 436
- spontaneous locomotor activity (normal mice; 1 mg/kg p.o., Time 30–60): 842
- spontaneous locomotor activity (normal mice; 1 mg/kg p.o., Time 60–30 (before administration)): 1016
- spontaneous locomotor activity (normal mice; 1 mg/kg p.o., Time 60–90): 1178
- spontaneous locomotor activity (normal mice; 1 mg/kg p.o., Time 90–120): 1281
- spontaneous locomotor activity (normal mice; 1 mg/kg p.o., Time 120–150): 991
- spontaneous locomotor activity (normal mice; 1 mg/kg p.o., Time 150–180): 273
- spontaneous locomotor activity (normal mice; 1 mg/kg p.o., Time 180–210): 411
- spontaneous locomotor activity (normal mice; 1 mg/kg p.o., Time 210–240): 135
- spontaneous locomotor activity (normal mice; 1 mg/kg p.o., Time 240–270): 463
- spontaneous locomotor activity (normal mice; 1 mg/kg p.o., Time 270–300): 366
- spontaneous locomotor activity, Total (normal mice; 1 mg/kg p.o.): 9676
- spontaneous locomotor activity (normal mice; 3 mg/kg p.o., Time 0–30): 3755
- spontaneous locomotor activity (normal mice; 3 mg/kg p.o., Time 30–0 (before administration)): 782
- spontaneous locomotor activity (normal mice; 3 mg/kg p.o., Time 30–60): 2626
- spontaneous locomotor activity (normal mice; 3 mg/kg p.o., Time 60–30 (before administration)): 2349
- spontaneous locomotor activity (normal mice; 3 mg/kg p.o., Time 60–90): 2690
- spontaneous locomotor activity (normal mice; 3 mg/kg p.o., Time 90–120): 2632
- spontaneous locomotor activity (normal mice; 3 mg/kg p.o., Time 120–150): 2230
- spontaneous locomotor activity (normal mice; 3 mg/kg p.o., Time 150–180): 868
- spontaneous locomotor activity (normal mice; 3 mg/kg p.o., Time 180–210): 377
- spontaneous locomotor activity (normal mice; 3 mg/kg p.o., Time 210–240): 940
- spontaneous locomotor activity (normal mice; 3 mg/kg p.o., Time 240–270): 266
- spontaneous locomotor activity (normal mice; 3 mg/kg p.o., Time 270–300): 597
- spontaneous locomotor activity, Total (normal mice; 3 mg/kg p.o., P < 0.05 vs vehicle): 16941*
- spontaneous locomotor activity (normal mice; 10 mg/kg p.o., Time 0–30): 5910
- spontaneous locomotor activity (normal mice; 10 mg/kg p.o., Time 30–0 (before administration)): 401
- spontaneous locomotor activity (normal mice; 10 mg/kg p.o., Time 30–60): 5079
- spontaneous locomotor activity (normal mice; 10 mg/kg p.o., Time 60–30 (before administration)): 1700
- spontaneous locomotor activity (normal mice; 10 mg/kg p.o., Time 60–90): 5485
- spontaneous locomotor activity (normal mice; 10 mg/kg p.o., Time 90–120): 6138
- spontaneous locomotor activity (normal mice; 10 mg/kg p.o., Time 120–150): 5582
- spontaneous locomotor activity (normal mice; 10 mg/kg p.o., Time 150–180): 5390
- spontaneous locomotor activity (normal mice; 10 mg/kg p.o., Time 180–210): 4218
- spontaneous locomotor activity (normal mice; 10 mg/kg p.o., Time 210–240): 3297
- spontaneous locomotor activity (normal mice; 10 mg/kg p.o., Time 240–270): 2305
- spontaneous locomotor activity (normal mice; 10 mg/kg p.o., Time 270–300): 1457
- spontaneous locomotor activity, Total (normal mice; 10 mg/kg p.o., P < 0.01 vs vehicle): 44861**
- dose that increased the spontaneous locomotor activity (normal mice; p.o., normal mice): ≥ 3 mg/kg
- catalepsy score, mean ([1]; compound (IX) 0.3 mg/kg p.o. + L-DOPA 100 mg/kg i.p., 1 hour): 17.4
